Data: patent US9868748B2, “Thiazolopyrrolidine inhibitors of ROR- γ” (Vitae Pharmaceuticals, Inc., priority 2013, dated 2018)
Read-outs that look alike come from different tables or passages of the source.

Columns and labels:
[1] = target: recombinant RORγ Ligand Binding Domain (LBD) protein (Homo sapiens (Human), UniProt P51449); experiment: Radio-Ligand RORγ Binding Assay (Assay 1); settings: competition with 25-hydroxy [26,27-3H]-cholesterol, SPA, read-out: RORγ Binding Ki Range*
Procedure, shortened: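 Scintillation proximity competition binding of 8.6 nM stock 25-hydroxy[26,27-3H]cholesterol to 24 nM stock 6×His-GST-tagged human RORγ LBD, in 50 mM HEPES pH 7.4 with NaCl, MgCl2, glycerol, CHAPS, β-octylglucopyranoside and DTT, room temperature. Inhibition referenced to DMSO and 10 μM T0901317; IC50 by four-parameter fit, converted to Ki using radioligand concentration and KD.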

[2] = target: full-length RORγt in Jurkat cells (Homo sapiens (Human), UniProt P51449); experiment: RORγt 5xRORE Assay in Jurkat Cells (Assay 2); format: cell-based; settings: Nanoluc luciferase reporter, 16-18 hrs
full-length RORγt in Jurkat cells, sequence (P51449 other isoform, or with tags, fused parts or gaps): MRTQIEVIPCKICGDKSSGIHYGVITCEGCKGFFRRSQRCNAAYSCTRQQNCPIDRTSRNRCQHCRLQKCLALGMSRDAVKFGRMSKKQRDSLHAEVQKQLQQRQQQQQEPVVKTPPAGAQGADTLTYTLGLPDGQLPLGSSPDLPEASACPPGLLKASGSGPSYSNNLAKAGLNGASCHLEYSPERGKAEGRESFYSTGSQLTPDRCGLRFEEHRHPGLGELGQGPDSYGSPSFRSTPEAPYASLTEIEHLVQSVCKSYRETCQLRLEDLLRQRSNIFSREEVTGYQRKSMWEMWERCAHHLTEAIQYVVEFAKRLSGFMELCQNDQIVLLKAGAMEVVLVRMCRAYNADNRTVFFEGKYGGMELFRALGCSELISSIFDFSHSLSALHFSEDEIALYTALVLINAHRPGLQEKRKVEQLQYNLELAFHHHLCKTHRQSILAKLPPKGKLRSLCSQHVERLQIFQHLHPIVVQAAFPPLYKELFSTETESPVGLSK
Procedure, shortened: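 Jurkat cells co-transfected with full-length RORγt expression plasmid and a 5×RORE-driven secreted Nanoluc reporter, then plated at 80,000 cells/well in phenol-red-free RPMI with 10% delipidated FBS. Compounds added at 0.1% DMSO for 16–18 h at 37 °C; supernatant luciferase read for inverse agonism.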

[3] = Table 9, read-out: RORγt5X IC50 Range*
[4] = Table 8, read-out: RORγt5X IC50 Range*

recombinant RORγ Ligand Binding Domain (LBD) protein, sequence (P51449 269-508): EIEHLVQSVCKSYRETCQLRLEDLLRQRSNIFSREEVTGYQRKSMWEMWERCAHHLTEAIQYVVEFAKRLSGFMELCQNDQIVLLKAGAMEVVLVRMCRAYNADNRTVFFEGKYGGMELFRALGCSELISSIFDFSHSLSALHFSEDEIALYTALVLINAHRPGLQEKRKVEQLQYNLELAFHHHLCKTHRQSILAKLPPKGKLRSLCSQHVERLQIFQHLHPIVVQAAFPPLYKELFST

Compound: CC(C)[C@H]1c2nc(C(=O)NCc3ccc(S(C)(=O)=O)cc3)sc2CN1Cc1ccc(C#N)cc1
- Ki ([1]; Table 9): < 100 nM
- IC50 [2, 3]: 100 to 1000 nM

Compound: CCS(=O)(=O)c1ccc(CC(=O)Nc2nc3c(s2)CN(Cc2ccc(C(=O)OC)cc2)[C@H]3C(C)C)cc1 [I-A60]
- Ki ([1]; Table 8): < 100 nM
- IC50 [2, 4]: < 100 nM

Compound: CCS(=O)(=O)c1ccc(CC(=O)Nc2nc3c(s2)CN(CC2CCN(CC(F)(F)F)CC2)[C@H]3C(C)C)cc1 [I-A20, (S)-2-(4-(ethylsulfonyl)phenyl)-N-(4-isopropyl-5-((1-(2,2,2-trifluoroethyl)piperidin-4-yl)methyl)-5,6-dihydro-4H-pyrrolo[3,4-d]thiazol-2-yl)acetamide]
- Ki ([1]; Table 8): < 100 nM
- IC50 [2, 4]: < 100 nM

Compound: CC(C)[C@H]1c2nc(NC(=O)Cc3ccc(S(C)(=O)=O)cc3)sc2CN1[C@@H](C)c1ccc(C#N)c(F)c1 (single isomer, unassigned)
- Ki ([1]; Table 9): < 100 nM
- IC50 [2, 3]: < 100 nM

Compound: CCS(=O)(=O)c1ccc(CC(=O)Nc2nc3c(s2)CN([C@@H](C)Cc2ccc(Cl)cc2)[C@H]3C(C)C)cc1
- Ki ([1]; Table 9): < 100 nM
- IC50 [2, 3]: 100 to 1000 nM

Compound: CCS(=O)(=O)c1cnc(CC(=O)Nc2nc3c(s2)CN(Cc2ccc(C#N)cc2)[C@H]3C(C)C)nc1
- Ki ([1]; Table 9): < 100 nM
- IC50 [2, 3]: 100 to 1000 nM

Compound: CCS(=O)(=O)c1ccc(CC(=O)Nc2nc3c(s2)CN(C[C@H]2CC[C@H](C(F)(F)F)N(C)C2)[C@H]3C(C)C)cc1 [I-A22]
- Ki ([1]; Table 8): < 100 nM
- IC50 [2, 4]: < 100 nM

Compound: CC(C)[C@H]1c2nc(NC(=O)Cc3ccc(Br)cc3)sc2CN1Cc1ccc(Cl)cc1
- Ki ([1]; Table 9): 100 to 1000 nM
- IC50 [2, 3]: > 1000 nM

Compound: CC(C)c1ccc(CN2Cc3sc(NC(=O)Cc4ccc(S(C)(=O)=O)cc4)nc3[C@H]2C(C)C)cc1
- Ki ([1]; Table 9): < 100 nM
- IC50 [2, 3]: > 1000 nM

Compound: CCS(=O)(=O)c1ccc(CC(=O)Nc2nc3c(s2)CN([C@H](C)Cc2ccccc2C(F)(F)F)[C@@H]3C(C)C)cc1
- Ki ([1]; Table 9): < 100 nM
- IC50 [2, 3]: > 1000 nM

Compound: CCc1ccc(CN2Cc3sc(NC(=O)Cc4ccc(S(=O)(=O)CC)cc4)nc3[C@@H]2C(C)C)cc1 [I-A63]
- Ki ([1]; Table 8): < 100 nM
- IC50 [2, 4]: < 100 nM

Compound: CCS(=O)(=O)c1ccc(CC(=O)Nc2nc3c(s2)CN([C@@H](C)c2ccc(C(F)(F)F)cc2F)[C@H]3C(C)C)cc1 [I-A37]
- Ki ([1]; Table 8): < 100 nM
- IC50 [2, 4]: < 100 nM

Compound: CC[C@H]1c2nc(NC(=O)Cc3ccc(S(C)(=O)=O)cc3)sc2CN1Cc1ccc2nn[nH]c2c1
- Ki ([1]; Table 9): < 100 nM
- IC50 [2, 3]: 100 to 1000 nM

Compound: CCS(=O)(=O)c1ccc(CC(=O)Nc2nc3c(s2)CN(Cc2ccc(C#N)cc2)[C@@H]3C(C)C)cc1
- Ki ([1]; Table 9): 100 to 1000 nM
- IC50 [2, 3]: 100 to 1000 nM

Compound: CCS(=O)(=O)c1cnc(CNC(=O)c2nc3c(s2)CN(Cc2ccc(C#N)cc2)[C@H]3C(C)C)nc1
- Ki ([1]; Table 9): < 100 nM
- IC50 [2, 3]: 100 to 1000 nM

Compound: CCS(=O)(=O)c1ccc(CC(=O)Nc2nc3c(s2)CN([C@H](C)c2ccc(Cl)cn2)[C@H]3C(C)C)cc1 [I-A47]
- Ki ([1]; Table 8): < 100 nM
- IC50 [2, 4]: < 100 nM

Compound: CCS(=O)(=O)c1ccc(CC(=O)Nc2nc3c(s2)CN(C[C@H]2CC[C@H](C(F)(F)F)NC2)[C@H]3C(C)C)nc1 (single isomer, unassigned) [drawing 212]
- Ki ([1]; Table 9): < 100 nM
- IC50 [2, 3]: > 1000 nM

Compound: CC[C@H]1c2nc(NC(=O)Cc3ccc(F)cc3)sc2CN1Cc1ccc(Cl)cc1
- Ki ([1]; Table 9): < 100 nM
- IC50 [2, 3]: 100 to 1000 nM

Compound: CCS(=O)(=O)c1cnc(CC(=O)Nc2nc3c(s2)CN(Cc2ccc(Cl)cc2)[C@H]3C(C)C)nc1
- Ki ([1]; Table 9): < 100 nM
- IC50 [2, 3]: 100 to 1000 nM

Compound: CCS(=O)(=O)c1ccc(CC(=O)Nc2nc3c(s2)CN(Cc2cc(C)c(C#N)cn2)[C@H]3C(C)C)cc1 [I-A49]
- Ki ([1]; Table 8): < 100 nM
- IC50 [2, 4]: < 100 nM

Compound: CCS(=O)(=O)c1ccc(CC(=O)Nc2nc3c(s2)CN([C@@H](C)c2ccccc2)[C@@H]3C(C)C)cc1 (single isomer, unassigned)
- Ki ([1]; Table 9): < 100 nM
- IC50 [2, 3]: > 1000 nM

Compound: CCS(=O)(=O)c1ccc(CC(=O)Nc2nc3c(s2)CN(Cc2ccc(C(F)F)cc2)[C@H]3C(C)C)cc1 [I-A61]
- Ki ([1]; Table 8): < 100 nM
- IC50 [2, 4]: < 100 nM

Compound: CCS(=O)(=O)c1ccc(CC(=O)Nc2nc3c(s2)CN(Cc2ccc(OC(F)(F)F)c(Cl)c2)[C@H]3C(C)C)nc1
- Ki ([1]; Table 9): < 100 nM
- IC50 [2, 3]: < 100 nM

Compound: CCS(=O)(=O)c1ccc(CNC(=O)c2nc3c(s2)CN(C[C@H]2CC[C@@H](C(F)(F)F)CC2)[C@H]3C(C)C)cc1 (relative stereo)
- Ki ([1]; Table 9): < 100 nM
- IC50 [2, 3]: > 1000 nM

Compound: CCS(=O)(=O)c1ccc(CC(=O)Nc2nc3c(s2)CN(Cc2ccc(C#N)c(C)n2)[C@H]3C(C)C)cc1 [I-A50]
- Ki ([1]; Table 8): < 100 nM
- IC50 [2, 4]: < 100 nM

Compound: CCS(=O)(=O)c1ccc(CC(=O)Nc2nc3c(s2)CN(c2ncc(C(F)(F)F)cn2)[C@H]3C(C)C)cc1
- Ki ([1]; Table 9): < 100 nM
- IC50 [2, 3]: > 1000 nM

Compound: CCS(=O)(=O)c1ccc(CC(=O)Nc2nc3c(s2)CN([C@@H](C)c2ccc(Cl)cn2)[C@H]3C(C)C)cc1 [I-A48]
- Ki ([1]; Table 8): < 100 nM
- IC50 [2, 4]: < 100 nM

Compound: CCS(=O)(=O)c1ccc(CNC(=O)c2nc3c(s2)CN(Cc2ccc(Cl)cc2)[C@H]3C(C)C)cc1 [I-J1, (S)-5-(4-chlorobenzyl)-N-(4-(ethylsulfonyl)benzyl)-4-isopropyl-5,6-dihydro-4H-pyrrolo[3,4-d]thiazole-2-carboxamide]
- Ki ([1]; Table 8): < 100 nM
- IC50 [2, 4]: < 100 nM

Compound: CCS(=O)(=O)c1ccc(CC(=O)Nc2nc3c(s2)CN(Cc2ccn(CC(F)(F)F)c(=O)c2)[C@H]3C(C)C)cc1
- Ki ([1]; Table 9): < 100 nM
- IC50 [2, 3]: < 100 nM

Compound: CCS(=O)(=O)c1ccc(CC(=O)Nc2nc3c(s2)CN(Cc2ccc(C#N)cc2)[C@@H]3C(C)(C)C)cc1
- Ki ([1]; Table 9): < 100 nM
- IC50 [2, 3]: 100 to 1000 nM

Compound: CC(C)[C@H]1c2nc(NC(=O)Cc3ccc(F)c(F)c3)sc2CN1Cc1ccc(C(F)(F)F)cc1
- Ki ([1]; Table 9): 100 to 1000 nM
- IC50 [2, 3]: 100 to 1000 nM

Compound: CCS(=O)(=O)c1ccc(CC(=O)Nc2nc3c(s2)CN(C[C@H]2CC[C@H](O)CC2)[C@H]3C(C)C)cc1
- Ki ([1]; Table 9): < 100 nM
- IC50 [2, 3]: < 100 nM

Compound: CCS(=O)(=O)c1ccc(CC(=O)Nc2nc3c(s2)CN(Cc2ccncc2)[C@H]3C(C)C)cc1
- Ki ([1]; Table 9): < 100 nM
- IC50 [2, 3]: > 1000 nM

Compound: Cc1nc(C(F)(F)F)ccc1CN1Cc2sc(NC(=O)Cc3ccc(S(C)(=O)=O)cc3)nc2[C@@H]1C(C)C [I-B13]
- Ki ([1]; Table 8): < 100 nM
- IC50 [2, 4]: < 100 nM

Compound: CCS(=O)(=O)c1ccc(CC(=O)Nc2nc3c(s2)CN(Cc2cc(OC)cc(OC)c2)[C@@H]3C(C)C)cc1
- Ki ([1]; Table 9): < 100 nM
- IC50 [2, 3]: > 1000 nM

Compound: CCS(=O)(=O)c1ccc(CC(=O)Nc2nc3c(s2)CN(Cc2cc(OC(F)F)ccc2F)[C@@H]3C(C)C)cc1
- Ki ([1]; Table 9): < 100 nM
- IC50 [2, 3]: > 1000 nM

Compound: CCS(=O)(=O)c1ccc(CC(=O)Nc2nc3c(s2)CN(c2ncc(Cl)c(C)n2)[C@H]3C(C)C)cc1
- Ki ([1]; Table 9): < 100 nM
- IC50 [2, 3]: > 1000 nM

Compound: CCS(=O)(=O)c1ccc(CC(=O)Nc2nc3c(s2)CN(Cc2cccc(C(F)(F)F)c2)[C@@H]3C(C)C)cc1
- Ki ([1]; Table 9): < 100 nM
- IC50 [2, 3]: > 1000 nM

Compound: CCS(=O)(=O)c1ccc(CC(=O)Nc2nc3c(s2)CN(C[C@H]2CC[C@@](C)(C#N)CC2)[C@H]3C(C)C)cc1 (single isomer, unassigned)
- Ki ([1]; Table 9): < 100 nM
- IC50 [2, 3]: < 100 nM

Compound: CC(C)[C@H]1c2nc(NC(=O)Cc3ccc(C(N)=O)cc3)sc2CN1Cc1ccc(Cl)cc1
- Ki ([1]; Table 9): < 100 nM
- IC50 [2, 3]: 100 to 1000 nM

Compound: CCS(=O)(=O)c1ccc(CC(=O)Nc2nc3c(s2)CN(C[C@@H]2CC[C@H](C(F)(F)F)O2)[C@H]3C(C)C)nc1 (single isomer, unassigned)
- Ki ([1]; Table 9): < 100 nM
- IC50 [2, 3]: > 1000 nM

Compound: CC1(C)c2nc(NC(=O)Cc3ccc(S(C)(=O)=O)cc3)sc2CN1c1nccc(C(F)(F)F)n1
- Ki ([1]; Table 9): 100 to 1000 nM
- IC50 [2, 3]: > 1000 nM
